“Also recorded” adds a separate entry of the source. Peptide text beside a SMILES is read from it.
Legend:
[1] = tested on: experimental autoimmune encephalomyelitis (EAE) mice; assay: EAE clinical score, treatment during the chronic phase; format: in vivo, mouse; details: chronic phase of EAE, vs PBS
Protocol: To test whether Link4 has similar effects to IL-4 in vivo, two pilot experiments were performed. In the first experiment (FIG. 3A), B16 mice were subjected to EAE and treated with IL-4, Link4, Ph8 and PBS (n=6-7 animals per group) via lumbar intrathecal injection directly into the cerebrospinal fluid (CSF) every other day for 14 days, in the chronic phase of the disease starting from day 5 after the first disease peak (grey bar). […] For better clinical translation, the treatment was then switched to nasal treatment with IL-4 and Link4 (FIG. 3B; 2 pooled experiments, n=15-16 per group). Nasally applied treatments can enter the brain through the cribriform plate, where olfactory nerve fibers cross through the bone, resulting in a connection between the roof of the nasal cavity and the brain (C. F. Xiao, F. J. Davis, B. C. Chauhan, K. L. Viola, P. N. Lacor, P. T. Velasco, W. L. Klein, and N. B. Chauhan, Brain transit and ameliorative effects of intranasally delivered anti-amyloid-beta oligomer antibody in 5XFAD mice. J Alzheimers Dis 35, 777-788 (2013)). Again, both IL-4 and Link4 treatments were beneficial.
For active EAE, female 9-10-weeks-old C57BI6 mice were immunized as previously described (M. Paterka, J. O. Voss, J. Werr, E. Reuter, S. Franck, T. Leuenberger, J. Herz, H. Radbruch, T. Bopp, V. Siffrin, and F. Zipp, Dendritic cells tip the balance towards induction of regulatory T cells upon priming in experimental autoimmune encephalomyelitis. J Autoimmun 67, 108-114 (2017)) by subcutaneous injection of 200 μg myelin oligodendrocyte […] 35-55 (MOG35-55) mixed with complete Freund adjuvant (CFA). Following the MOG35-55 immunization 400 ng pertussis toxin (PTX) was administered intraperitoneally at the day of immunizaton and after 24 h. Clinical signs were scored using the following parameters:
Treatment with rIL-4 (1 μg, Peprotech), Ph8 (1 μg, custom synthesized, Schafer N), Link4 (1 μg, custom synthesized, Schafer N) or vehicle (PBS) was performed during the chronic phase of the disease models by lumbar intrathecal injection (R. Lu and A. Schmidtko, Direct intrathecal drug delivery in mice for detecting in vivo effects of cGMP on pain processing. Methods Mol Biol 1020, 215-221 (2013)) or nasal application of IL-4 and Link4 was performed according to published procedures (C. F. Xiao, F. J. Davis, B. C. Chauhan, K. L. Viola, P. N. Lacor, P. T. Velasco, W. L. Klein, and N. B. Chauhan, Brain transit and ameliorative effects of intranasally delivered anti-amyloid-beta oligomer antibody in SXFAD mice. J Alzheimers Dis 35, 777-788 (2013)). Mice were pre-trained to avoid stress and held at a 45 degree angle to apply IL-4 solution (1 μg, Peprotech) to the nostrils using a pipette tip.

[2] = tested on: human H9 cell-derived neurons; assay: Growth assay for human H9 cells; format: cell-based; details: 50 ng/ml, 24 h, vs PBS, FIG. 7B
From the text: B: Human Link4 induced neurite outgrowth in human H9 cell-derived neurons. Human neurons were cultivated with commercially available human neural stem cells (H9 cells), which were then differentiated to become neurons. […] The growth assay for human H9 cells described herein can be used to easily detect effects of the derivative peptides of the present invention on human neurons. In particular, this assay can be used to quickly test whether derivative peptides falling within the scope of the present invention are functional.
H9 human neural stem cells (H9 hNSCs) were purchased from Gibco and expanded according to the manufacturer's instructions. For consecutive neural differentiation hNSCs were harvested and reseeded on glass coverslips coated with Matrigel (High Concentration, Growth Factor Reduced; Corning; diluted 1:100 in Knockout DMEM [Gibco]) at a density of 25.000 cells/cm^2. hNSCs were allowed to rest for 48 hours in a basal neuronal medium (Neurobasal, 1X B27, 1x Glutamax, 1x Penicillin/Streptomycin, all from Gibco) before changing to EnStem A Neural Differentiation Medium (SCM017, Millipore) for a further 4 days. Cultures were treated with recombinant human IL-4 (Peprotech) or human Link4 at 50 ng/ml or equal volumes of PBS for 24 h. […]

[3] = tested on: CD11b+ bone marrow-derived macrophages (BMDMs); assay: Differentiation of bone marrow-derived macrophages; format: cell-based, mouse; details: different concentrations, FIG. 4A
Protocol: (§1) A-B: Effects of incubation with IL-4 and different concentrations of Link4 and Link13 on the differentiation of A: CD11b^+ bone marrow-derived macrophages (BMDMs) into F80^+CD206^+ cells, and B: CD4^+ T cells into Gata3^+ cells. C-D: FACS results for different populations of T cells and CD11b^+MHCII^+ monocytes/macrophages/microglia of immune cells isolated from C: spleen and D: central nervous system (CNS) of EAE mice treated with PBS, IL-4 or Link4.
(§2) In order to investigate whether Link4 and Link13 are able to modulate immune cells, in vitro assays were performed on bone marrow-derived macrophages (BDMBs) and on naïve T cells.
Murine BMDMs were isolated from adult C57BL/6 mice. The tibia and femur bones were flushed with sterile PBS and the bone marrow was collected in washing medium. After filtering the cell suspension trough a 100 μm nylon mesh, the cells were centrifuged (5 min, 550 g, 4° C.) and resuspended in mouse medium (10% FCS, 1% P/S, 1% L-glutamine, 0.1% β-mercaptoethanol, 1% HEPES in RPMI buffer). For the in vitro generation of BMDMs cells were plated in 6 well-plates and exposed to 20 ng/ml Macrophage […] (M-CSF) for 4 days. For the activation of the cells, Dexametason (5×10^−7M), LPS (10 μg/ml) and IL-4 (10 ng/ml) were added to the culture for the following 3 days.

CD4+ T cells = assay: TH2 differentiation of naive T cells; format: cell-based, mouse; details: different concentrations, FIG. 4B
Protocol: as §1, §2
For the isolation of T lymphocytes 5-8 week old C57BL/6 mice were sacrificed by cervical dislocation and the spleens and lymph nodes (LN) were isolated and rubbed trough a 100 μm cell strainer into a 50 ml tube with washing medium (5% FCS, 1% P/S,1% HEPES in PBS). After washing, the cells were centrifuged for 5 min at 550 g at 4° C. To remove the red blood cells the […] was re-suspended in lysis buffer followed by centrifugation (5 min, 550 g, 4° C.). The cells were resuspended in MACS buffer and magnetic lymphocyte sorting was performed on ice, using the MidiMACS and QuadroMACS Seperators. A CD4 untouched and CD8 touched cell sort was performed a washing step in ml MACS buffer (5 min, 550 g, 4° C.). Cells were incubated with CD4 T cell biotin antibody cocktail (Miltenyi Biotec) in MACS buffer for 5 min at 4° C. Subsequently, anti-biotin microbeads and CD8 microbeads in MACS buffer was added. CD8 microbeads were added to reduce the possible contamination of CD8^+ lymphocytes. After 10 min of incubation at 4° C. the cells were washed again and resuspended in MACS buffer. MACS columns were pre equilibrated and topped with pre-separation filters (30 μm). A maximum of 300×10^6 cells were added to each column followed by 3 consecutive washing steps with MACS buffer. […] The purity of the magnetic cells sorts was assessed by comparing pre- and post-sort samples by flow cytometry. […]

[4] = cited from earlier work
[5] = tested on: mouse embryonic fibroblasts (Mef); assay: CellTiter-blue cell viability assay (ctb), fibroblasts; format: cell-based; details: Mef cells, increasing concentrations, FIG. 2A
Protocol: (§3) Toxicity was checked by subjecting mouse embryonic fibroblasts (Mef) and the hippocampal cell line HT22 to a CellTiter-blue cell viability assay (ctb).
(§4) Mouse embryonic fibroblasts (Mef) (Sigma-Aldrich) and hippocampal HT22 (ThermoScientific) cells were cultured according to the manufacturer's protocols. Ctb assays were performed according to the manufacturer's protocols (Promega).

[6] = tested on: hippocampal cell line HT22; assay: CellTiter-blue cell viability assay (ctb), hippocampal cell line; format: cell-based; details: HT22 cells, increasing concentrations, FIG. 2B
Protocol: as §3, §4

[7] = lumbar intrathecal injection, 1 μg every other day for 14 days

WNRSEIIKTGSKTIMREKY (listed as Homo sapiens) [human Link4]
clinical score [1, 7]: equally effective as mouse Link4
neurite outgrowth [2]: increase neurite outgrowth

LIRSELIEELSNITGSFITKLLSYTKQ (listed as Mus musculus) [Link13]
differentiation of CD11b+ BMDMs into F80+CD206+ cells [3]: did not occur
differentiation of CD4+ T cells into Gata3+ cells (CD4+ T cells): did not take place

interleukin-4 [IL-4]
differentiation of CD11b+ BMDMs into F80+CD206+ cells [3]: increased the expression of the differentiation markers F80 and CD206
half-life in blood plasma [4]: very short half-life
differentiation of CD4+ T cells into Gata3+ cells (CD4+ T cells): observed
clinical score [1, 7]: ameliorate clinical symptoms; also recorded: significant improvement in the clinical score; also recorded: significant amelioration of the clinical score
clinical score ([1]; lumbar intrathecal injection, 1 μg every other day for 14 days, listed as mouse full length IL-4): reducing disease symptoms
clinical score ([1]; nasal application): equally effective; also recorded: significant improvement in the clinical score; also recorded: beneficial

CC[C@H](C)[C@H](NC(=O)CNC(=O)[C@@H](NC(=O)[C@@H](NC(=O)[C@@H](N)CCC(=O)O)[C@@H](C)CC)[C@@H](C)CC)C(=O)NCC(=O)N1CCC[C@H]1C(=O)N[C@@H](CCCNC(=N)N)C(=O)N[C@@H](CC(C)C)C(=O)N[C@@H](Cc1ccccc1)C(=O)N[C@@H](CCCNC(=N)N)C(=O)N[C@@H](C)C(=O)N[C@@H](Cc1ccccc1)C(=O)N[C@@H](CCCNC(=N)N)C(=O)N[C@@H](CS)C(=O)N[C@@H](CO)C(=O)NCC(=O)N[C@@H](CO)C(=O)N[C@@H](CCCNC(=N)N)C(=O)N[C@@H](C)C(=O)N[C@@H](CO)C(=O)N[C@@H](CCCCN)C(=O)N[C@H](C(=O)N[C@@H](CC(C)C)C(=O)N[C@@H](CCCNC(=N)N)C(=O)N[C@H](C(=O)N[C@@H](Cc1ccccc1)C(=O)N[C@@H](Cc1ccc(O)cc1)C(=O)N[C@@H](CC(C)C)C(=O)O)[C@@H](C)CC)C(C)C [AvoC] (H-EIIGIGPRLFRAFRCSGSRASKVLRIFYL-OH; N-terminus and C-terminus assumed)
toxic effects on fibroblasts (cell viability) [5]: no toxic effects
toxic effects on hippocampal neurons (cell viability) [6]: no toxic effects

B1: full length IL-4: recombinant human IL-4 (Peprotech) used on human H9 cell-derived neurons (protein, UniProt P05112 25-153, looked up)
Interleukin-4: HKCDITLQEIIKTLNSLTEQKTLCTELTVTDIFAASKNTTEKETFCRAATVLRQFYSHHEKDTRCLGATAQQFHRHKQLIRFLKRLDRNLWGLAGLNSCPVKEANQSTLENFLERLKTIMREKYSKCSS
neurite outgrowth [2]: increase neurite outgrowth

Source: patent US20200377568A1, “Novel IL-4-/IL-13-derived peptide compounds for the treatment or prevention of neurodegenerative or neuroinflammatory diseases” (Universitätsmedizin der Johannes Gutenberg-Universität Mainz, priority 2018, published 2020)
